Data as given in patent publication US8440669B2, “Pharmaceutical composition for prevention and treatment of diabetes or obesity comprising a compound that inhibits activity of dipeptidyl peptidase-IV, and other antidiabetic or antiobesity agents as active ingredients” (Dong-A Pharmaceutical Co. Ltd., priority 2008, dated 2013).
Where “and” joins values, the source holds several entries; their conditions need not be identical. Equal values may be shown once.

Assays:
Assay type in all cases: in vivo
[1] = test system: blood glucose; test: Blood glucose after 7-day administration in db/db diabetic mice
Description: In order to examine synergistic effects of a complex by a compound prepared in Preparation Example 1 of the present invention and an insulin sensitizer PPARγ agonist, the percent inhibition of blood glucose by repeated administration of the complex to db/db mice as diabetic mice was evaluated. Eight-week-old male mice (db/db mice) were used as experimental subjects. […] The dose of a compound prepared in Preparation Example 1 with respect to rosiglitazone at a fixed dose was selected at 1 mg/kg and 40 mg/kg (complex ratio 1:0.01˜1:0.4) in consideration of a complex ratio in an expected clinical dose. […] 0.5% methylcellulose (MC) was at each drug concentration to prepare suspensions. Each compound was weighed, and 0.5% methylcellulose was used to prepare 5 mL/kg of suspensions with each composition of (1 mg of the compound prepared in Preparation Example 1+0.4 mg of rosiglitazone)/5 mL and (40 mg of the compound prepared in Preparation Example 1+0.4 mg of rosiglitazone)/5 mL.
The percent inhibition value with respect to blood glucose was calculated by comparison with a control group.

[2] = Fat mass (epidydimal + retroperitoneal fat) after 4-week administration in diet-induced obesity mice; conditions: 4 weeks; for Fat mass: HF-DIO mice (control 3.61 ± 0.20); for % reduction (fat mass): vs HF-DIO control group
Description: (§1) In order to examine synergistic effects by repeated administration of a compound prepared in Preparation Example 1 and cannabinoid receptor-1 antagonist, effects of 4-week administration to obese mice on an OGTT blood glucose change curve and on fat mass were evaluated. Diet-induced obesity mice obtained by supplying experimental mice (C57BL/6 mice) with high fat fodder (60 kcal % fat, Research Diets, D12492) for 5 month were used as experimental subjects. 0.5% methylcellulose (MC) was used to prepare a suspension of the compound 1 prepared in Preparation Example 1 with a composition of 0.3 mg/kg which is presumed to be a dose of minimum effective efficacy and 3 mg/kg. 0.5% MC was used to prepare a suspension of rimonabant, a cannabinoid receptor-1 antagonist with a composition of 3 mg/kg. Rimonabant has the same parent nucleus structure as a cannabinoid receptor-1 antagonist, such as Otenabant, Ibinabant, and Surinabant, and 5 mL/kg of the complex thereof was prepared in doses of (0.3 mg of a compound prepared in Preparation Example 1+3 mg of rimonabant)/5 mL and (3 mg of a compound prepared in Preparation Example 1+3 mg/kg of rimonabant)/5 mL. When the mixing ratio is 1:0.1 or less, or 1:1 or more, the dose may exceed a daily clinical dose of rimonabant or poor efficacy may occur. Thus, the mixing ratio was set at […].
Experiments were performed on the experimental subject and experimental drug in the same manner as in Experimental Example 5-1, the fat mass was calculated as a sum of epidydimal fat and retroperitoneal fat, and fat mass 4 weeks after administration was measured.

[3] = test system: plasma glucose; test: Plasma glucose after 2-week repeated administration in diet-induced obesity mice; conditions: obese mice
Description: (§2) In order to examine synergistic effects of a compound prepared in Preparation Example 1 of the present invention and metformin complex by repeated administration, effects of a single administration to obese mice on an OGTT blood glucose change curve and of a 2-week repeated administration on the percent inhibition of blood glucose were evaluated. Diet-induced obesity mice obtained by supplying experimental mice (C57BL/6 mice) with high fat fodder (60 kcal % fat, Research Diets, D12492) for 5 month were used as experimental subjects. 0.5% methylcellulose (MC) was used to prepare a suspension of the compound 1 prepared in Preparation Example 1 with a composition of 0.1 mg/kg and 0.15 mg/kg. 0.5% MC was used to prepare a suspension of metformin with a composition of 7.5 mg/kg and 15 mg/kg. […] of the complex was prepared in doses of (0.1 mg/kg of a compound prepared in Preparation Example 1+15 mg/kg of metformin)/5 mL and (0.15 mg/kg of a compound prepared in Preparation Example 1+7.5 mg/kg of metformin)/5 mL.

[4] = test system: blood glucose; test: Oral sucrose tolerance test, single administration in C57BL/6 mice (voglibose combination)
Description: In order to examine synergistic effects of a compound prepared in Preparation Example 1 of the present invention and an α-glucosidase inhibitor-series drug by complexing drugs, the percent inhibition in a single administration oral sucrose tolerance test blood glucose change curve by individual materials and a complex thereof was evaluated. 8-week-old male experimental mice (C57BL/6 mice) were used as experimental subjects. The mice were fasted for 16 to 17 hours prior to the experiments. Blood was collected from caudal veins of mice in the morning on the day of the experiment and a blood glucose level was measured with an ACCU-CHEK ACTIVE Blood Glucose Meter (Roche Diagnostics). The pharmaceutically mixed composition of the present invention was given orally 30 min prior to sucrose administration (−30 min), followed by oral administration of a […] (2 g/kg/10 mL) after 30 min (0 min). Blood collection was made at designated time points—just prior to drug administration, just prior to sucrose administration, and 15, 30, 60, 90, and 120 min after sucrose administration. […] In order to evaluate synergistic or additive effects by complexes in the present evaluation, 0.5% methylcellulose (MC) was used to prepare a suspension with a compound prepared in Preparation Example 1 at a dose of 0.3 mg/kg, and 0.5% MC was also used to prepare a suspension with a composition of an α-glucosidase inhibitor and voglibose at 0.009 mg/kg and 0.054 mg/kg (complex ratio 1:0.031:0.18) such that a complex ratio may be included at a clinical dose expected in a state where a dose of a compound prepared in Preparation Example 1 was fixed.

[5] = test system: blood glucose; test: OGTT, single administration in diet-induced obesity mice; conditions: obese mice
Description: as §2
(§3) Obese mice were fasted for 16 to 17 hours prior to the experiments, blood was collected from caudal veins of mice in the morning on the day of the experiment and a blood glucose level was measured with an ACCU-CHEK ACTIVE Blood Glucose Meter (Roche Diagnostics). The mixed composition of the present invention was given orally 30 min prior to glucose administration (−30 min), followed by oral administration of a glucose solution (2 g/kg/10 mL) after 30 min (0 min). Blood collection was made at designated time points—just prior to drug administration, just prior to glucose administration, and 15, 30, 60 and 90 min after glucose administration. The percent inhibition value was calculated by calculating an area under curve of each group and comparing the value with that of a control group in which glucose had been administered.

[6] = test system: blood glucose; test: OGTT after 4-week administration in diet-induced obesity mice (rimonabant combination); conditions: obese mice
Description: as §1
as §3, with “Diagnostics). The pharmaceutically mixed composition” for “Diagnostics). The mixed composition”, “(0 min). […] The percent” for “(0 min). Blood collection was made at designated time points—just prior to drug administration, just prior to glucose administration, and 15, 30, 60 and 90 min after glucose administration. The percent”

[7] = test system: blood glucose; test: Oral glucose tolerance test (OGTT), single administration in normal mice; ED30 and isobologram; conditions: C57BL/6 mice; for ED30 ± (SEM): dose giving 30% inhibition of OGTT blood glucose AUC, single agent
Description: Laboratory mice (C57BL/6 mice) as experimental subjects were fasted for 16 to 17 hours prior to the experiments. Blood was collected from caudal veins of mice in the morning on the day of the experiment and a blood glucose level was measured with an ACCU-CHEK ACTIVE Blood Glucose Meter (Roche Diagnostics). The pharmaceutical composition of the present invention was given orally 30 min prior to glucose administration (−30 min), followed by oral administration of a glucose solution (2 g/kg/10 mL) after 30 min (0 min). Blood collection was made at designated time points—just prior to drug administration, just prior to glucose administration, and 15, 30, 60 and 90 min after glucose administration.
Effects of single administration of the individual agents on a blood glucose change curve in an oral glucose tolerance test (OGTT) were identified by percent inhibition (%) and ED30. The percent inhibition values for each treatment were generated from the area under curve (AUC) data normalized to the non-glucose challenged controls by subtracted blood glucose AUC of non-glucose challenged controls from glucose challenged groups, and comparing the value with that of a control group in which glucose has been administered.
Feasible synergistic effects of a composition at each fixed ratio were analyzed by isobologram (R. J. Tallarida et al, Life Sci. 1989, 45, 947). […] When the result of ED30mix<ED30add is established at a certain fixed ratio, the mixture has synergistic effects. ED30add was calculated from ED30 of each drug. In FIG. 1, fractions of the ED30 values of each material are present on each axis thereof. The ED30 value of the compound prepared in Preparation Example 1 only is 0.2 mg/kg and shown as value 1 in FIG. 1, and the ED30 value of metformin only is 30 mg/kg and shown as value 1 in FIG. 1. Therefore, the line combining the ED30 values of the two individual drugs indicates a simple additivity (ED30add) calculated from glucose tolerance effects at different ratios. Therefore, the points designated as A, B, C, and D in FIG. 1 with respect to each mixture studied indicate fractions of ED30 values (ED30mic) determined by actual experiments performed on a mixtures of the compound prepared in Preparation Example 1 and metformin at ratios of 9:1, 5:1, 1:1, and 1:3. The points A′, B′, C′, and D′ in FIG. 1 indicate fractions of doses (ED30add) corresponding to mixtures of the compound prepared in Preparation Example 1 and metformin at ratios of 9:1, 5:1, 1:1, and 1:3 expected under a simple additivity.
The ratios of doses actually administered to animals in each fraction were calculated by multiplying 0.2 mg/kg and 30 mg/kg which are ED30 values of the compound prepared in Preparation Example 1 and metformin, respectively with a desired ratio. Administrations were performed in the ranges of: 0.045˜0.36 mg/kg of the compound prepared in Preparation Example 1+0.75˜6 mg/kg of metformin at a ratio of 9:1, 0.042˜0.33 mg/kg of the compound prepared in Preparation Example 1+1.25˜10 mg/kg of metformin at a ratio of 5:1, 0.025˜0.2 mg/kg of the compound prepared in Preparation Example 1+[…] of metformin at a ratio of 1:1, 0.0125˜0.2 mg/kg of the compound prepared in Preparation Example 1+5.625˜45 mg/kg of metformin at a ratio of 1:3. When this is applied to a healthy adult (about 70 kg), the dose corresponds to 0.88˜25.2 mg of the compound prepared in Preparation Example 1 and 52.5˜3150 mg of metformin, and includes a daily clinical dose of metformin, which is 500˜2000 mg.

[8] = test system: blood glucose; test: OGTT, single administration in C57BL/6 mice (glimepiride combination)
Description: In order to examine synergistic effects of a complex of a compound prepared in Preparation Example 1 of the present invention and an insulin secretagogue sulfonyl urea-series drug, the percent inhibitions of single administration OGTT blood glucose change curves by individual materials and complexes were evaluated. 8-week-old male experimental mice (C57BL/6 mice) were used and fasted for 16 to 17 hours prior to the experiments. Blood was collected from caudal veins of mice in the morning on the day of the experiment and a blood glucose level was measured with an ACCU-CHEK ACTIVE Blood Glucose Meter (Roche Diagnostics). The mixed composition of the present invention was given orally 30 min prior to glucose administration (−30 min), followed by oral administration of a glucose solution (2 g/kg/10 mL) after 30 min (0 min). Blood collection was made at designated time points—just prior to drug administration, just prior to glucose administration, and 15, 30, 60 and 90 min after glucose administration. […] In order to evaluate synergistic or additive effects by complex in the present evaluation, 0.5% methylcellulose (MC) was used to prepare a suspension with a dose of a compound prepared in Preparation Example 1 at 0.1 mg/kg, and 0.5% MC was also used to prepare a suspension with a composition of an insulin secretagogue sulfonyl urea-series drug and glimepiride at 0.02 mg/kg and 0.32 mg/kg such that a complex ratio may be included at a clinical dose expected in a fixed state of a compound prepared in Preparation Example 1. […] A complex thereof was prepared at 10 mL per kg by weighing individual compounds and mixing the compounds with each composition ((a compound prepared in Preparation Example 10.1 mg+glimepiride 0.02 mg)/10 mL and (a compound prepared in Preparation Example 10.1 mg+glimepiride 0.32 mg)/10 mL)).

Structure (SMILES): CC(C)(C)OC[C@@H]1C(=O)NCCN1C(=O)C[C@H](N)Cc1cc(F)c(F)cc1F [(R)-4-[(R)-3-amino-4-(2,4,5-trifluorophenyl)-butanoyl]-3-(t-butoxymethyl)piperazin-2-one]
- Percent inhibition (blood glucose vs control) ([1]; 7 days oral 1 mg/kg): 21%
- Percent inhibition (blood glucose vs control) ([1]; 7 days oral 40 mg/kg): 11%
- Fat mass ([2]; 0.3 mg/kg): 3.67 ± 0.12 g
- % reduction (fat mass) ([2]; 0.3 mg/kg): −1.65%
- Fat mass ([2]; 3 mg/kg): 3.29 ± 0.21 g
- % reduction (fat mass) ([2]; 3 mg/kg): 8.71%
- Percent inhibition (plasma glucose vs control) ([3]; 2-week repeated administration 0.1 mg/kg): 2%
- Percent inhibition (plasma glucose vs control) ([3]; 2-week repeated administration 0.15 mg/kg): 15%
- Percent inhibition (blood glucose AUC, oral sucrose tolerance test) ([4]; single oral dose 0.3 mg/kg): 12%
- Percent inhibition (blood glucose AUC, OGTT) ([5]; single administration 0.1 mg/kg): 2%
- Percent inhibition (blood glucose AUC, OGTT) ([5]; single administration 0.15 mg/kg): 3%
- Percent inhibition (blood glucose AUC, OGTT) ([6]; 4-week administration 0.3 mg/kg): 18.2%
- Percent inhibition (blood glucose AUC, OGTT) ([6]; 4-week administration 3 mg/kg): 35.3%
- ED30 ± (SEM) [7]: 0.20 mg/kg and 0.2 mg/kg and 0.20 ± 0.04 mg/kg
- Percent inhibition (blood glucose AUC, OGTT) ([7]; single oral dose 0.1 mg/kg): 18.5%
- Percent inhibition (blood glucose AUC, OGTT) ([7]; single oral dose 0.3 mg/kg): 38.7%
- Percent inhibition (blood glucose AUC, OGTT) ([7]; single oral dose 1 mg/kg): 54.8%
- Percent inhibition (blood glucose AUC, OGTT) ([8]; single oral dose 0.1 mg/kg): 7.7%

Structure (SMILES): CCC1=C(C)CN(C(=O)NCCc2ccc(S(=O)(=O)NC(=O)N[C@H]3CC[C@H](C)CC3)cc2)C1=O [Glimepiride, glimepiride]
- Percent inhibition (blood glucose AUC, OGTT) ([8]; single oral dose 0.02 mg/kg): −3.69%
- Percent inhibition (blood glucose AUC, OGTT) ([8]; single oral dose 0.32 mg/kg): 10.9%

Structure (SMILES): CN(C)C(=N)N=C(N)N [Metformin, metformin, reference compound]
- Percent inhibition (plasma glucose vs control) ([3]; 2-week repeated administration 7.5 mg/kg): 13%
- Percent inhibition (plasma glucose vs control) ([3]; 2-week repeated administration 15 mg/kg): 14%
- Percent inhibition (blood glucose AUC, OGTT) ([5]; single administration 7.5 mg/kg): 7%
- Percent inhibition (blood glucose AUC, OGTT) ([5]; single administration 15 mg/kg): 11%
- ED30 ± (SEM) [7]: 29.6 mg/kg and 30 mg/kg and 29.6 ± 6.68 mg/kg
- Percent inhibition (blood glucose AUC, OGTT) ([7]; single oral dose 10 mg/kg): 7.43%
- Percent inhibition (blood glucose AUC, OGTT) ([7]; single oral dose 30 mg/kg): 29.06%
- Percent inhibition (blood glucose AUC, OGTT) ([7]; single oral dose 100 mg/kg): 54.46%

Structure (SMILES): Cc1c(C(=O)NN2CCCCC2)nn(-c2ccc(Cl)cc2Cl)c1-c1ccc(Cl)cc1 [Rimonabant, rimonabant, reference compound]
- Fat mass ([2]; 3 mg/kg): 2.11 ± 0.31 g
- % reduction (fat mass) ([2]; 3 mg/kg): 41.5%
- Percent inhibition (blood glucose AUC, OGTT) ([6]; 4-week administration 3 mg/kg): 1.1%

Structure (SMILES): CN(CCOc1ccc(CC2SC(=O)NC2=O)cc1)c1ccccn1 (stereo not shown) [Rosiglitazone, rosiglitazone, reference compound]
- Percent inhibition (blood glucose vs control) ([1]; 7 days oral 0.4 mg/kg): 10%

Structure (SMILES): OCC(CO)N[C@H]1C[C@](O)(CO)[C@@H](O)[C@H](O)[C@H]1O [Voglibose, voglibose]
- Percent inhibition (blood glucose AUC, oral sucrose tolerance test) ([4]; single oral dose 0.009 mg/kg): 1%
- Percent inhibition (blood glucose AUC, oral sucrose tolerance test) ([4]; single oral dose 0.054 mg/kg): 53%
